The values that follow come from US11667675B2, “MASP inhibitory compounds and uses thereof” (Bayer Aktiengesellschaft, priority 2019, dated 2023).

Where a name gives a salt, the structure may show the parent alone. Numbered stars: 1 amine (or outer) side, 2 acyl side, 3 side chain; on linkers, the order of the positions; unused ones are H or OH. Bridge positions count the residues as written; N and C are the ends. Square brackets hold non-standard residues; d marks the D form. Peptide text beside a SMILES is read from it. * marks the point of attachment. X1 = O=C(C1[C@H]2CCCC[C@H]2C[C@H]1C(=O)[*:2])[C@@H]1CCCN1[*:1]; Oic = O=C(O)[C@@H]1C[C@@H]2CCCC[C@@H]2N1; Pen = CC(C)(S)[C@H](N)C(=O)O; X2 = N[C@@H](CN*)C(=O)O; Sar = CNCC(=O)O

The target in experiment [1] is T1, rat MASP1 (Rattus norvegicus, UniProt Q8CHN8).
T1 construct: Ig-kappa secretion signal (N, cleaved yes); made in house; host or cells: HEK293 (ATCC No. CRL-1573)
T1 sequence (Q8CHN8 302-453 limits assumed): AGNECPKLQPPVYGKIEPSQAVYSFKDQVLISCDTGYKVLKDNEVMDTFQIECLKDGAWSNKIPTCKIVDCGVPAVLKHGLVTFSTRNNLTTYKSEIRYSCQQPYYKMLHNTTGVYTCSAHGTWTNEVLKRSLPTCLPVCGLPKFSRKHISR
T1 sequence (Q8CHN8 454-704 limits assumed): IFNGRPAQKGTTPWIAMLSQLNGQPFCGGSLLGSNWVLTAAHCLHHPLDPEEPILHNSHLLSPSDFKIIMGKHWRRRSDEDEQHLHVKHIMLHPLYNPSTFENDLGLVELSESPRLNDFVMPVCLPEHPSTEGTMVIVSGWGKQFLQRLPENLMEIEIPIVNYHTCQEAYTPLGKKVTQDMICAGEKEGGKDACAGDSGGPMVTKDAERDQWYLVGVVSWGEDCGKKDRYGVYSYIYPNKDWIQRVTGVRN
The experiment can be described thus: Biochemical rat MASP1 assay (FRET substrate). To be noted: average IC50; recombinant rat MASP1, FRET substrate. An excerpt:
4. Biochemical Rat MASP-1 and MASP-2 Assay
4.1 Recombinant Expression and Protein Production of Recombinant Human and Rat MASP1 and MASP2 Active Proteases.
A truncated cDNA sequence of rat MASP1 encoding the fragment corresponding to the amino acids 302-704 with an C-terminal His Tag and N-terminal Ig-kappa secretion signal (SEQ ID No: 4) was subcloned into the mammalian expression vector pcDNA3.1 (Invitrogen).
The MASP1 or MASP2 expression vectors were transfected into the HEK293 (ATCC No. CRL-1573) cell line using Lipofectamine LTX® Reagent (Thermo-Fischer), as described by the manufacturer. The mature form of the recombinant rat MASP1 and MASP2 proteases were secreted into the culture medium. The MASP1 and MASP2 proteins were purified from the conditioned media by affinity chromatography on Ni-NTA Superflow resin (Qiagen) as described by the manufacturer.
4.2 Biochemical Rat MASP1 Assay.
Recombinant rat MASP1 enzyme produced in the HEK 293 cells was diluted in the reaction buffer (50 mM HEPES pH 8,0; 100 mM NaCl; 0.01% CHAPS; 0.5 mM Gluthathione) to the concentration of 4 nM and 25 μl was transferred into each single well of 384-well white microtiter plate (Greiner Bio One 781075). 1 μl of the inhibitor compound solution (dissolved in DMSO, at the corresponding concentration) or pure DMSO as a control was added to the same wells. The enzymatic reaction was initiated by addition of 25 μl of 40 μM solution of the FRET substrate Dabcyl-[…]-Glu(Edans)-NH2 (SEQ ID NO: 8); (Dabcyl—4-((4-(dimethylamino)phenyl)azo)benzoic acid; Edans—5-[(2-Aminoethyl) amino]naphthalene-1-sulfonyl; custom synthesis by Jerini Peptide Technologies, Berlin) in the reaction buffer. The microtiter plate was incubated for 60-120 min at the temperature of 32 C. The increase of fluorescence intensity was measured in appropriate fluorescence plate reader (e.g. TECAN Ultra) using excitation wavelength of 340 nm and emission wavelength of 490 nm. IC50 values were calculated from percentage of inhibition of rat […] activity as a function of test compound concentration.

Experiment [2] has as its system rat C3-[…]. As to the kind of experiment: C3 deposition assay, rat serum on mannan-coated plates. In kind it is biochemical. To be noted: average IC50. As for the experimental part:
3. C3 Deposition Assay (Human, Rat, Mouse, Dog, Mini-Pig)
The C3 deposition assay was conducted essentially as described (reference). Multi well plates (Greiner-Nunc 384 Maxi Sorp #464718) were coated over night with Mannan from Saccharomyces cerevisiae (Sigma M7504, 10 μg/mL in 0.05 M carbonate-bicarbonate buffer, pH 9.6) at 4° C. Wells were washed three times with TBS and subsequently incubated for 2 hours with 50 μL of 1% bovine serum albumin (BSA) in Tris-buffered saline (TBS) at 37° C. in order to block non-specific binding. After this step and each of the following incubation steps wells were washed three times with C3 wash buffer (TBS; 0.05% Tween 20; 5 mM CaCl2). […] When appropriately developed the color reaction was stopped by addition of 25 μL of stop solution (Sigma S5814) and quantified on a photometer by measuring absorption at a wavelength of 450 nm. Antibodies were diluted in C3 wash buffer supplemented with 0.5% BSA.

With `CC[C@H](C)[C@H](NC(=O)[C@H](C)NC)C(=O)N[C@H]1CSSC(C)(C)[C@@H](C(=O)N[C@H](C(=O)N2CCC[C@H]2C(N)=O)[C@@H](C)CC)NC(=O)[C@H]([C@@H](C)CC)NC(=O)[C@@H]2C[C@@]3(CN2C(=O)[C@@H]2CCCN2C(=O)[C@@H](CC(C)(C)C)NC(=O)[C@H](CO)NC(=O)[C@H](CCCNC(=N)N)NC(=O)[C@H](CO)NC1=O)CC3(F)F` (single isomer, unassigned; enantiomer 1) [Example 443], in experiment [1], the IC50 (usually the concentration at which inhibition is half-maximal) came to 0.029 µM.
Take `CC[C@H](C)[C@H](NC(=O)CNC)C(=O)N[C@H]1CSSC(C)(C)[C@@H](C(=O)N[C@H](C(=O)N2CCC[C@H]2C(N)=O)[C@@H](C)CC)NC(=O)[C@H]([C@@H](C)CC)NC(=O)[C@@H]2C[C@@H]3CCCC[C@@H]3C2C(=O)[C@@H]2CCCN2C(=O)[C@H](CC(C)C)NC(=O)[C@H](CO)NC(=O)[C@H](CCCNC(=N)N)NC(=O)[C@H](CO)NC1=O` (stereo partly drawn) [Example 67, ((N-Me)G)-IC+SRSLP-(Oic)-I-(Pen)+IP-NH2 (HCl Salt)] (H-[Sar]ICSRSL[X1]I[Pen]IP-NH2; disulfide 3-10): the concentration for half-maximal inhibition (IC50) in experiment [1] was 0.072 µM.
As for `CC[C@H](C)[C@H](NC(=O)CNC)C(=O)N[C@H]1CSSC(C)(C)[C@@H](C(=O)N[C@H](C(=O)N2CCC[C@H]2C(N)=O)[C@@H](C)CC)NC(=O)[C@H]([C@@H](C)CC)NC(=O)[C@@H]2C[C@@H]3CCCC[C@@H]3N2C(=O)[C@@H]2CCCN2C(=O)[C@H](CC(C)C)NC(=O)[C@H](CO)NC(=O)[C@H](CCCNC(=N)N)NC(=O)[C@H](CO)NC1=O` [Example 109, ((N-Me)G)-IC+SRSLP-(Oic)-I-(Pen)+IP-NH2] (H-[Sar]ICSRSLP[Oic]I[Pen]IP-NH2; disulfide 3-11), in experiment [1], the IC50 came to 0.076 µM.
Take `[2H][C@@H]1[C@H]([2H])CN2C(=O)[C@H](CC(C)C)NC(=O)[C@H](CO)NC(=O)[C@H](CCCNC(=N)N)NC(=O)[C@H](CO)NC(=O)[C@@H](NC(=O)[C@@H](NC(=O)[C@H](C)N)[C@@H](C)CC)CSSC(C)(C)[C@@H](C(=O)N[C@H](C(=O)N3CCC[C@H]3C(=O)N[C@@H](CC(=O)O)C(=O)O)[C@@H](C)CC)NC(=O)[C@H]([C@@H](C)CC)NC(=O)[C@@H]3C[C@@H]4CCCC[C@@H]4N3C(=O)[C@H]12` [Example 142, N-[(1R,2S,6S,9S,12S,15S,18R,23R,26S,28aS,35aS)-18-[(L-alanyl-L-isoleucyl)amino]-26-[(2S)-butan-2-yl]-12-(3-carbamimidamidopropyl)-9,15-bis(hydroxymethyl)-22,22-dimethyl-6-(2-methylpropyl)-5,8,11,14,17,25,28,35-octaoxo(1,2-^2H2)dotriacontahydro-1H,5H,22H-pyrrolo[2′,1′:13,14][1,2,5,8,11,14,17,20,23,26]dithiaoctaazacyclononacosino[11,10-a]indole-23-carbonyl]-L-isoleucyl-L-prolyl-L-aspartic Acid]: the concentration for half-maximal inhibition (IC50) in experiment [1] stood at 0.0109 µM; in experiment [2], 0.472 µM.
Take `CC[C@H](C)[C@H](NC(=O)[C@H](C)N)C(=O)N[C@H]1CSSC[C@@H](C(=O)N[C@H](C(=O)N2CCC[C@H]2C(=O)N[C@@H](CC(=O)O)C(N)=O)[C@@H](C)CC)N(C)C(=O)[C@H]([C@@H](C)CC)NC(=O)[C@@H]2C[C@@H]3CCCC[C@@H]3N2C(=O)[C@@H]2CCCN2C(=O)[C@H](CC(C)C)NC(=O)[C@H](CO)NC(=O)[C@H](CCCNC(=N)N)NC(=O)[C@H](CO)NC1=O` [Example 185, AIC+SRSLP-(Oic)-I-((N-Me)C)+IPD-NH2]: the half-maximal inhibitory concentration (IC50) in experiment [1] worked out at 0.057 µM; in experiment [2], 0.236 µM.
As for `CC[C@H](C)[C@H](NC(=O)CNC)C(=O)N[C@H]1CSSC(C)(C)[C@@H](C(=O)N[C@H](C(=O)N2CCC[C@H]2C(=O)N[C@@H](CC(=O)O)C(=O)N[C@@H](CC(=O)O)C(=O)O)[C@@H](C)CC)NC(=O)[C@H]([C@@H](C)CC)NC(=O)[C@@H]2C[C@@H]3CCCC[C@@H]3N2C(=O)[C@@H]2CCCN2C(=O)[C@H](CC(C)C)NC(=O)[C@H](CO)NC(=O)[C@H](CCCNC(=N)N)NC(=O)[C@H](CO)NC1=O` [Example 466, ((N-Me)G)-IC+SRSLP-(Oic)-I-(Pen)+IPDD-OH] (H-[Sar]ICSRSLP[Oic]I[Pen]IPDD-OH; disulfide 3-11), in experiment [1], the half-maximal inhibitory concentration (IC50) was 0.0176 µM.
For `CC[C@H](C)[C@H](NC(=O)CNC)C(=O)N[C@H]1CSSC(C)(C)[C@@H](C(=O)N[C@H](C(=O)N2CCC[C@H]2C(=O)NC[C@H](N)C(=O)O)[C@@H](C)CC)NC(=O)[C@H]([C@@H](C)CC)NC(=O)[C@@H]2C[C@@H]3CCCC[C@@H]3N2C(=O)[C@@H]2CCCN2C(=O)[C@H](CC(C)C)NC(=O)[C@H](CO)NC(=O)[C@H](CCCNC(=N)N)NC(=O)[C@H](CO)NC1=O` [Example 467] (H-[Sar]ICSRSLP[Oic]I[Pen]IP-X2; disulfide 3-11), the IC50 in experiment [1] is 0.17 µM.
